# Experimental data as given in patent publication US20260234185A1, “ANTI-AGING COMPOSITION COMPRISING PEPTIDE COMPLEX AS ACTIVE INGREDIENT” (priority 2023, published 2026).
# Where no end group is shown, it is not given here.
# System: sirtuin 1 (SIRT1)
# Experiment: Western blot of SIRT1 protein expression in adipocytes
# Type: cell-based
# Details: differentiated 3T3-L1 adipocytes; 0.2, 2, 20 μg/mL; 1 hour; Western blot (FIGS. 1a, 1b)
# Protocol: An experiment was performed to determine whether the peptide complex prepared in Preparation Example 1 using adipocytes increases the phosphorylation of AMP-activated protein kinase (AMPK), which is a longevity-related protein, and increases the expression levels of sirtuin 1 (SIRT1) and fibroblast growth factor 21 (FGF21) proteins in adipocytes.
# When 3T3-L1 preadipocytes reached 80% confluence, they were seeded at 5×10^3 cells/well in a 96-well plate and used for the experiment. Two days after reaching confluence, the medium was replaced with a differentiation-inducing medium to induce the differentiation into adipocytes, and two days after the induction, the cells were cultured for 2 days in a medium containing 10% FBS and 10 μg/mL insulin, and then the medium was replaced with 10% FBS every 2 days until their differentiation into adipocytes. Once the differentiation was complete, the medium was replaced with a serum-free medium and cultured for 4 hours to induce starvation. The peptide complexes were treated at concentrations of 0.2 μg/mL, 2 μg/mL, and 20 μg/mL, incubated for 1 hour, dissolved by adding dissolution buffer thereto, and the proteins obtained by centrifugation at 4° C. and 12,000 rpm for 30 minutes were quantified using a BCA kit. […]
substance,measurement,value
peptide complex: prepared by mixing equal amounts of the peptide of SEQ ID NO: 1 (LKTRN) and the peptide of SEQ ID NO: 2 (KGSATGWMA) (also: mixture of two peptides),expression level of SIRT1 protein,increased
